Results: EP2426213A1, “Marker for sunitnib resistance formation” (Max-Planck-Gesellschaft zur Förderung der Wissenschaften …, priority 2010, dated 2012)

What was measured:
Type in all cases: cell-based, Human
A498 [1] = assay: Propidium iodide (PI) apoptosis assay, LD50 after 72 h
Description: (§1) Human kidney carcinoma and melanoma cell lines A498, A704, CAKI1, CAKI2, WM115, WM266-4 and C8161 were provided by M. Herlyn (Wistar Institute, Philadephia) and R. Gillies (Arizona Cancer Center, Phoenix) or purchased from the American Tissue Culture Collection. CAKI1, CAKI2 and C8161 cells were cultured in Dulbecco's modified Eagle's medium (DMEM; Gibco Life Technologies Inc.), supplemented with 10 % fetal calf serum (FCS), 2 mM glutamine, and 1 % nonessential amino acids. A498, A704 and WM115 cells were cultured in Minimum Essential Medium (MEM; Gibco Life Technologies Inc.) supplemented with 10 % FCS, 2 mM glutamine, and 1 % (v/v) nonessential amino acids. WM266-4 cells were cultured in RPMI medium (Gibco Life Technologies Inc.), supplemented with 10 % FCS and 2 mM glutamine.
(§2) The cells were treated with Sunitinb concentrations between 2.5 µM and 20 µM for 72 h and apoptosis was determined according to Nicoletti's procedure (Riccardi and Nicoletti 2006). BD CellQuest Pro software (Becton Dickinson) for subG1 peak detection was used to determine the extent of the apoptotic cell formation. Statistical evaluation of the half maximal lethal dose-(LD50) values was assessed by using SigmaPlot (Systat Software, Inc., version 10).

A704 = assay: as above; details: A704 parental, Sunitinib 2.5-20 µM, apoptosis (subG1)
Description: as §1, §2

C8161 [2] = assay: as above; details: C8161 parental; Sunitinib 72 h; apoptosis (subG1)
Description: as §1, §2

CAKI1 = assay: as above
Description: as §1, §2

WM115 [3] = assay: as above; details: WM115 parental; Sunitinib 72 h; apoptosis (subG1)
Description: as §1, §2

WM266-4 [4] = assay: as above; details: WM266-4 parental; Sunitinib 72 h; apoptosis (subG1)
Description: as §1, §2

A498^SDes [5] = assay: Apoptosis LD50 in Sunitinib desensitized cell line; details: A498^SDes compared to parental cell line; 72 h
Description: as §2

A704^SDes = assay: Apoptosis LD50 in Sunitinib desensitized cell line; details: A704^SDes compared to parental cell line; 72 h
Description: as §2

C8161^Sdes [6] = assay: Apoptosis LD50 in Sunitinib desensitized cell line; details: C8161^Sdes compared to parental cell line; 72 h
Description: as §2

WM115^SDes [7] = assay: Apoptosis LD50 in Sunitinib desensitized cell line; details: WM115^SDes compared to parental cell line; 72 h
Description: as §2

WM266-4^SDes [8] = assay: Apoptosis LD50 in Sunitinib desensitized cell line; details: WM266-4^SDes compared to parental cell line; 72 h
Description: as §2

A704^NDes = assay: Apoptosis LD50 in Sorafenib selected cell line
Description: as §2
(§3) To determine the drug specificity of the selection process, we also established Sorafenib selected polyclonal cell populations using the same conditions.

C8161^NDes [9] = assay: Apoptosis LD50 in Sorafenib desensitized cell line
Description: as §2, §3

WM115^NDes [10] = assay: Apoptosis LD50 in Sorafenib desensitized cell line
Description: as §2, §3

WM266-4^NDes [11] = assay: Apoptosis LD50 in Sorafenib desensitized cell line
Description: as §2, §3

A498^SDes [12] = assay: Increased Sunitinib-induced apoptosis (AdA) after siRNA knock-down, PI assay; details: Sunitinib 72 h
Description: (§4) The cells were seeded with equal numbers in 6-Well plates and transfected with 40 pmol siRNA (PRKX (AMBION, cat. no.: s224410, s224411, s11195), TTBK2 (AMBION, cat. no.: s44812, s44813, s44814), RSK4/RPS6KA6 (AMBION, cat. no.: s223751, s223752, s223753) and 5 µl lipofectamine RNAiMAX (Invitrogen) following the manufacturers' protocols. To determine the knock-down efficiency, semi-quantitative RT-PCR was performed (Primer list, see table 1). Table 1: Primer used for RT-PCR
(§5) Apoptotic cell formation was monitored according to Nicoletti's procedure.
(§6) To analyze the increased Sunitinib-induced apoptosis (AdA) upon gene-expression reduction compared to the control siRNA, apoptosis was determined using PI-Assays after 72 h. Gene knock-downs ranged between 50% and 90%, as estimated by scanning densitometry (Fig. 4A). […] Like for PRKX and TTBK2, the […] in gene-expression strongly correlated with the degree of desensitization.

A498 [13] = assay: as above; details: Sunitinib 72 h
Description: as §4, §5, §6

C8161^NDes [14] = assay: as above; details: C8161NDes, Sunitinib 72 h
Description: as §4, §5, §6

C8161^Sdes [15] = assay: as above; details: Sunitinib 72 h
Description: as §4, §5, §6

C8161 [16] = assay: as above; details: Sunitinib 72 h
Description: as §4, §5, §6

WM115^NDes [17] = assay: as above; details: Sunitinib 72 h
Description: as §4, §5, §6

WM115 [18] = assay: as above; details: Sunitinib 72 h
Description: as §4, §5, §6

WM266-4^NDes [19] = assay: as above; details: Sunitinib 72 h
Description: as §4, §5, §6

WM266-4^SDes [20] = assay: as above; details: Sunitinib 72 h
Description: as §4, §5, §6

WM266-4 [21] = assay: as above; details: Sunitinib 72 h
Description: as §4, §5, §6

WM115^SDes [22] = assay: as above; details: RSK4 reduction by siRNA vs control siRNA, Sunitinib 72 h
Description: as §4, §5

A498^SDes cells = assay: Boyden Chamber migration assay after siRNA knock-down and Sunitinib treatment; details: Sunitinib 12 h
Description: as §4, §5
(§7) Then, cells were seeded onto a membrane with 8 µm pores of a modified Boyden chamber (Schubert and Weiss) containing 500 µL serum-free medium. 10 % FCS served as chemo-attractant.

parental A498 cells = assay: as above; details: Sunitinib 12 h
Description: as §4, §5, §7

[23] = PRKX reduction by siRNA vs control siRNA
[24] = RSK4 reduction by siRNA vs control siRNA
[25] = TTBK2 reduction by siRNA vs control siRNA

SMILES: CCN(CC)CCNC(=O)c1c(C)[nH]c(/C=C2\C(=O)Nc3ccc(F)cc32)c1C [Sunitinib]
- LD50-values (A498 [1]; A498 parental, Sunitinib 72 h, apoptosis (subG1)): 12.4 ± 0.4 µM
- LD50-values (A704): 2.2 ± 0.4 µM
- LD50-values (C8161 [2]): 15.5 ± 0.7 µM
- LD50-values (CAKI1; CAKI1 parental, Sunitinib 72 h, apoptosis (subG1)): 16.6 ± 1.5 µM
- LD50-values (WM115 [3]): 3.6 ± 0.9 µM
- LD50-values (WM266-4 [4]): 6.4 ± 1.3 µM
- increase of the LD50-values (A498^SDes [5]): 122%
- increase of the LD50-values (A704^SDes): 344%
- increase of the LD50-values (C8161^Sdes [6]): 112%
- increase of the LD50-values (WM115^SDes [7]): 301%
- increase of the LD50-values (WM266-4^SDes [8]): 174%
- Sunitinib LD50-value (A704^NDes; A704^NDes (Sorafenib selected)): 9.0 ± 2.5 µM
- increased Sunitinib LD50-value (A704^NDes; A704^NDes in comparison to the parental cell line): 419%
- decrease in Sunitinib sensitivity (C8161^NDes [9]; C8161^Ndes compared to parental): 77%
- increase of the Sunitinib LD50-values (WM115^NDes [10]; WM115^Ndes compared to parental): 249%
- increase of the Sunitinib LD50-values (WM266-4^NDes [11]; WM266-4^Ndes compared to parental): 168%
- increased Sunitinib-induced apoptosis (AdA) (A498^SDes [12]; PRKX reduction by siRNA vs control siRNA, A498SDes): 14.7 ± 4.4%
- increased Sunitinib-induced apoptosis (AdA) (A498^SDes [12]; RSK4 reduction by siRNA vs control siRNA, A498^SDes): 14.7 ± 4.4%
- increased Sunitinib-induced apoptosis (AdA) (A498^SDes [12]; TTBK2 reduction by siRNA vs control siRNA, A498^SDes): 13.6 ± 0.4%
- increased Sunitinib-induced apoptosis (AdA) (A498 [13]; [23]): 6.5 ± 3.2%
- increased Sunitinib-induced apoptosis (AdA) (A498 [13]; [24]): 6.5 ± 3.2%
- increased Sunitinib-induced apoptosis (AdA) (A498 [13]; [25]): 7.1 ± 3.1%
- increased Sunitinib-induced apoptosis (AdA) (C8161^NDes [14]; [23]): 18.1 ± 8.8%
- increased Sunitinib-induced apoptosis (AdA) (C8161^NDes [14]; [24]): 6.0 ± 2.1%
- increased Sunitinib-induced apoptosis (AdA) (C8161^NDes [14]; [25]): -2.2 ± 6.8%
- increased Sunitinib-induced apoptosis (AdA) (C8161^Sdes [15]; PRKX reduction by siRNA vs control siRNA, C8161SDes): 35.8 ± 9.9%
- increased Sunitinib-induced apoptosis (AdA) (C8161^Sdes [15]; RSK4 reduction by siRNA vs control siRNA, C8161SDes): 11.9 ± 4.8%
- increased Sunitinib-induced apoptosis (AdA) (C8161^Sdes [15]; TTBK2 reduction by siRNA vs control siRNA, C8161^SDes): 20.3 ± 8.1%
- increased Sunitinib-induced apoptosis (AdA) (C8161 [16]; [23]): 19.4 ± 2.4%
- increased Sunitinib-induced apoptosis (AdA) (C8161 [16]; [24]): 12.5 ± 3.6%
- increased Sunitinib-induced apoptosis (AdA) (C8161 [16]; [25]): 7.3 ± 4.8%
- increased Sunitinib-induced apoptosis (AdA) (WM115^NDes [17]; PRKX reduction by siRNA vs control siRNA, WM115NDes): 3.9 ± 4.8%
- increased Sunitinib-induced apoptosis (AdA) (WM115^NDes [17]; RSK4 reduction by siRNA vs control siRNA, WM115^NDes): 5.6 ± 3.8%
- increased Sunitinib-induced apoptosis (AdA) (WM115^NDes [17]; TTBK2 reduction by siRNA vs control siRNA, WM115NDes): 11.7 ± 4.4%
- increased Sunitinib-induced apoptosis (AdA) (WM115 [18]; [23]): 3.2 ± 0.4%
- increased Sunitinib-induced apoptosis (AdA) (WM115 [18]; [24]): 4.8 ± 2.3%
- increased Sunitinib-induced apoptosis (AdA) (WM115 [18]; [25]): 4.8 ± 1.5%
- increased Sunitinib-induced apoptosis (AdA) (WM266-4^NDes [19]; [23]): 23.0 ± 5.4%
- increased Sunitinib-induced apoptosis (AdA) (WM266-4^NDes [19]; [24]): 5.3 ± 5.2%
- increased Sunitinib-induced apoptosis (AdA) (WM266-4^NDes [19]; [25]): 12.7 ± 2.5%
- increased Sunitinib-induced apoptosis (AdA) (WM266-4^SDes [20]; PRKX reduction by siRNA vs control siRNA, WM266-4SDes): 34.1 ± 4.9%
- increased Sunitinib-induced apoptosis (AdA) (WM266-4^SDes [20]; RSK4 reduction by siRNA vs control siRNA, WM266-4^SDes): 20.2 ± 5.7%
- increased Sunitinib-induced apoptosis (AdA) (WM266-4^SDes [20]; TTBK2 reduction by siRNA vs control siRNA, WM266-4SDes): 16.8 ± 7.7%
- increased Sunitinib-induced apoptosis (AdA) (WM266-4 [21]; [23]): 22.4 ± 6.7%
- increased Sunitinib-induced apoptosis (AdA) (WM266-4 [21]; [24]): 7.1 ± 2.0%
- increased Sunitinib-induced apoptosis (AdA) (WM266-4 [21]; [25]): 5.1 ± 2.0%
- increased Sunitinib-induced apoptosis (AdA) (WM115^SDes [22]): 14.1 ± 3.2%
- increased Sunitinib inhibitory effect (migration) (A498^SDes cells; PRKX reduction by siRNA): 76.4 ± 4.1%
- increased Sunitinib anti-migratory effect (A498^SDes cells; RSK4 reduction by siRNA): 8.6 ± 3.1%
- inhibition of migration compared to the scrambled siRNA control (parental A498 cells; PRKX reduction by siRNA): 64.4 ± 11.1%
- increase in Sunitinib inhibition of migration (parental A498 cells; RSK4 reduction by siRNA): 27.3 ± 2.7%
- increase in Sunitinib inhibition of migration (parental A498 cells; TTBK2 reduction by siRNA): 37.1 ± 1.0%

SMILES: CNC(=O)c1cc(Oc2ccc(NC(=O)Nc3ccc(Cl)c(C(F)(F)F)c3)cc2)ccn1 [Sorafenib]
- Sorafenib sensitivity (apoptosis) (A498 [1]; parental A498): insensitivity
- Sorafenib sensitivity (apoptosis) (CAKI1; parental CAKI1): insensitivity
- decreased sensitivities against Sorafenib compared to the parental cell lines (C8161^NDes [9]; C8161^NDes, Sorafenib LD50): 249%
- decreased sensitivities against Sorafenib compared to the parental cell lines (WM115^NDes [10]; WM115^NDes, Sorafenib LD50): 197%
- decreased sensitivities against Sorafenib compared to the parental cell lines (WM266-4^NDes [11]; WM266-4^NDes, Sorafenib LD50): 130%
